Data taken from US4816490A, “Novel therapeutic use of a derivative of indane dione and the pharmaceutical compositions intended for this use” (priority 1987, dated 1989).

What was measured:
[1] = Acute toxicity after single intraperitoneal administration; type: in vivo; details: mouse, in vivo, ip, calculated LD 50 (about)
From the text: (§1) Male and female mice of Swiss strain weighing from 22 to 25 g of body weight were free of pathogen specific organisms (EOPS), stemming from breeding CERJ (53860 LE GENEST (France) and acclimated for at least 8 days in the animalry of the firm.
(§2) Except where stipulated to the contrary, in the tables giving the results, 10 animals of the same sex for each dose were housed in cages of MAKROLON (Safi) of 40 cm by 25 cm filled with shaving of wood. Standard feeding for rats and mice, tablets UAR and tap water ad libitum.
(§3) The compounds were administered without previous fasting either orally (gastric tubing using a metallic oesophageous sonde) at a rate of 0.5 ml or 1 ml per 20 g of body weight of an aqueous suspension of the test compound in a 3% solution of arabic gum, or intraperitoneally at a rate of 0.5 ml or 1 ml per 20 g of body weight of the test compound suspended in an isotonic saline solution containing 3% of arabic gum.
(§4) For 6 days after the single administration and then every day for 15 days.
(§5) When necessary, the mean lethal doses (LD 50) were calculated by the method of Behrens and Karber (BK) and Miller and Tainter (MT). The latter allowing to supply with, for the threshold of probability P=0.05 a limit of confidence for the LD 50. Further calculated were the LDo i.e. DMT=maximal doses always tolerated and the LD100 i.e. DMM=minimal doses always lethal.

[2] = Acute toxicity after single oral administration; type: in vivo; details: mouse, in vivo, po
From the text: as §1, §2, §3, §4, §5
The compound was administered in a single dose to batches of 10 male or female mice weighing […] at a rate of 1 ml per 20 g of body weight.

[3] = test system: hyperlipidaemia / atheroma in Wistar rats on atheromatogenous regimen; assay: Biochemical testings in rats on atheromatogenous (cholesterol-rich) diet, including atheroma risk ratios; type: in vivo, rat; details: 100 mg/kg; for Cholesterol in LDL, variation in comparison to controls-Diet: LDL (estimate)
From the text: (§6) The method utilized for the test was that, slightly altered of Aubert D. Feraud J. C., Lacaze B., Pepino., Ponak E. et Podesta M. as described in Atherosclerosis, Vol. 20 (1974), p. 263-280 (Experimental Atherogenesis in the Wistar Rat).
(§7) Female rats of Wistar strain, free of specific pathogenic germs (EOPS) stemming from the breeding EVIC-CEBA
Mean body weight: 160-180 g at the start of the test
(§8) Diet: standard tablets UAE AO 3 enriched in cholesterol (0.5%) and in cholic acid (0.5).
15 animals per each batch and by cage in MACROLON (Safi) of 59 cm×38 cm, 5 cm filled with a litter of shavings of wood.
(§9) Diet of the animals: the animals were given the atheromatogenous regimen then while maintaining the same regimen, they were given for 4 days 250,000 IU/kg of vitamin D2 dissolved in olive oil (Sterogyl 15H). The compounds to be tested were given thereafter for 4 weeks immediately after the termination of the atheromatogenous regimen.
At the end of these studies the following tests were performed on all surviving animals.
Esterified blood cholesterol
Cholesterol in LDL (estimate)
The total score for each product was obtained by adding each individual scores and allowed the following classification
The protection against the atheromatogenous risk was evaluated using the following ratios: […]

[4] = test system: atheromatous deposits of the aorta, Wistar rats; assay: Macroscopic examination of aorta atheroma in rats on atheromatogenous diet; type: in vivo, rat; details: 100 mg/kg
From the text: as §6, §8
After the studies, all the animals were sacrificed by subtotal puncture of the blood in the abdominal aorta after anesthesia by intravenous sodium Pentobarbital. The hearts, livers, aortas on which the score of atheroma was determined were taken. For this purpose, the aortas were longitudinally cut, then spread to allow a whole insight of the endothelial coating from the aortic valves until the branching of the coeliac stem (lower portion of the thoracic aorta).
Aorta was from an anatomic point of view divided into two parts:
Zone 1: aortic valves-first intercostal arters
Zone 2: first intercostal arters and branching of the coeliac stem
The intensity of the atheromatous deposits was determined according to the following scores:
Score 1: Discrete (<1 mm) and few deposit
Score 2: Numerous and discrete deposits
Score 3: Numerous and marked deposits (<1 mm)
Score 4: Very marked deposits or very numerous deposits but letting some uninfiltrated areas
Score 5: Deposits on the whole epithelium
Two parameters were considered:
the intensity of the observed damages determined according to the previously-given scores.

[5] = test system: atheromatous damages of the aorta, Wistar rats; assay: Histopathological examination of atheroma in rats on atheromatogenous diet; type: in vivo, rat; details: 100 mg/kg
From the text: as §6, §8
The aorta, livers, hearts of the rats after sacrifice were […] with an aqueous solution of Bouin's Reagent and embedded in paraffin after washing with alcohols at increasing concentration and with toluene. The hearts were kept in blocks of paraffin for a further examination when necessary. The livers were stained using the technique of Hematein-eosin and the aorta were stained using the techniques of
orcein-light green to evidence the structural damages of the elastic strips
periodic acid, then Schiff's Reagent to locate the deposits of mucopolysaccharids […]
The intensity of the observed damages and the degree of atheromatosis were determined using one of the following scores: […]
The histopathological examinations provided individual scores which were analyzed, then reported for each batch. Three parameters were distinctly determined: […]
2. The intensity of the atheromatous damages found, determined by the previously-given scores.
3. The number of the observed atheromatous damage calculated on the basis of a batch of 15 animals each.

[6] = test system: female rats of Wistar strain; assay: Tolerance, mortality and body weight in the rat atheroma study
From the text: as §7, §9
The behavior and the changes in weight of the animals were surveyed every day as well as by weekly weighing.

[7] = test system: atheroma / hyperlipidaemia in Wistar rats on atheromatogenous regimen; assay: Overall hypolipaemiant and anti-atheromatous classification (summarized scores); type: in vivo, rat; details: 100 mg/kg
From the text: as §6, §7, §8, §9

[8] = Maximal tolerated dose on chronic administration in the rat; details: in vivo
[9] = test system: hyperlipidaemia induced by TRITON WR 1339; assay: Hyperlipidaemia induced by TRITON WR 1339 in the Wistar rat; type: in vivo; details: for Dose dependence of hypolipaemiant activity: 250 and 500 mg/kg
Experimental: Feeding by standard Regimen UAR A04
Drinking water ad libitum
6 animals per dose in a cage in MAKROLON of 60×40 cm filled with shavings of wood.
10 mn after: administration of the test compound
6 hours after: 1st sampling of the blood at the retro-orbital sinus
Total cholesterol by the colorimetric method of RICHMOND
Cholesterol in HDL by the colorimetric method of RICHMOND after precipitation by CONCANAVALIN A
Cholesterol in LDL by the colorimetric method of RICHMOND after precipitation by CONCANAVALIN A
Total lipids by the Zollner's sulphophosphovanillic method
Triglycerids by the BUCOLO's enzymatic method.

Structure (SMILES): CCOC(=O)C(C)(C)Oc1ccc(Cl)cc1 [Clofibrate]
- LD50 [1]: ~1800 mg/kg
- LD50 [2]: 2500 mg/kg
- Cholesterol in LDL / Cholesterol in HDL ratio (risk of atheroma) [3]: 5.35
- Cholesterol in LDL / Cholesterol in HDL, % in comparison with Controls-Diet [3]: -78.13%
- Total Blood Cholesterol / Cholesterol in HDL ratio (risk of atheroma) [3]: 6.69
- Total Blood Cholesterol / Cholesterol in HDL, % in comparison with Controls-Diet [3]: -74.91%
- Cholesterol in HDL, variation in comparison to controls-Diet ([3]; 4 weeks): +104.17%
- Esterified cholesterol, variation in comparison to controls-Diet ([3]; 4 weeks): -55.00%
- Total Blood lipids, variation in comparison to controls-Diet ([3]; 4 weeks): -35.43%
- Total blood cholesterol, variation in comparison to controls-Diet ([3]; 4 weeks): -48.75%
- Triglycerids, variation in comparison to controls-Diet ([3]; 4 weeks): -24.14%
- Cholesterol in LDL, variation in comparison to controls-Diet ([3]; 4 weeks): -55.37%
- Macroscopical examination total score [4]: 2.00
- Damaged animals, % of decrease in comparison with Controls-Diet ([4]; macroscopical): -18.18%
- Damaged animals, percentage ([4]; macroscopical): 81.82%
- Damaged animals, score in relation to Clofibrate ([4]; macroscopical): 1.00
- Intensity of the damages, % of decrease in comparison with Controls-Diet ([4]; macroscopical): -25.65%
- Intensity of the damages, score in relation to Clofibrate ([4]; macroscopical): 1.00
- Histological examination score [5]: 2.00
- Mortality ([6]; rat, in vivo): 4/15
- Classification of the anti-atheromatous action [7]: Compound of the invention>Fenofibrate>Clofibrate
- MTD [8]: ~100 mg/kg

Structure (SMILES): CC(C)OC(=O)C(C)(C)Oc1ccc(C(=O)c2ccc(Cl)cc2)cc1 [Fenclofibrate]
- Atheromatous risk total score [3]: 0.23
- Cholesterol in LDL / Cholesterol in HDL, % in comparison with Controls-Diet [3]: -12.35%
- Cholesterol in LDL / Cholesterol in HDL, score in comparison with Clofibrate [3]: 0.16
- Total Blood Cholesterol / Cholesterol in HDL, % in comparison with Controls-Diet [3]: -5.06%
- Total Blood Cholesterol / Cholesterol in HDL, score in comparison with Clofibrate (=1) [3]: 0.07
- Cholesterol in HDL score (Clofibrate=1) ([3]; 4 weeks): 0.04
- Cholesterol in HDL, variation in comparison to controls-Diet ([3]; 4 weeks): +4.17%
- Cholesterol in LDL score (Clofibrate=1) ([3]; 4 weeks): 0.16
- Esterified cholesterol score (Clofibrate=1) ([3]; 4 weeks): 0.40
- Esterified cholesterol, variation in comparison to controls-Diet ([3]; 4 weeks): -22.08%
- Total Blood lipids score (Clofibrate=1) ([3]; 4 weeks): 0.29
- Total Blood lipids, variation in comparison to controls-Diet ([3]; 4 weeks): -10.31%
- Total blood cholesterol score (Clofibrate=1) ([3]; 4 weeks): 0.02
- Total blood cholesterol, variation in comparison to controls-Diet ([3]; 4 weeks): -1.09%
- Triglycerids, variation in comparison to controls-Diet ([3]; 4 weeks): -25.86%
- Cholesterol in LDL, variation in comparison to controls-Diet ([3]; 4 weeks): -8.69%
- Biochemistry total score ([3]; sum of individual scores, Clofibrate=1 each): 1.98
- Macroscopical examination total score [4]: 2.17
- Damaged animals, % of decrease in comparison with Controls-Diet ([4]; macroscopical): -16.67%
- Damaged animals, percentage ([4]; macroscopical): 83.33%
- Damaged animals, score in relation to Clofibrate ([4]; macroscopical): 0.92
- Intensity of the damages, % of decrease in comparison with Controls-Diet ([4]; macroscopical): -31.97%
- Intensity of the damages, score in relation to Clofibrate ([4]; macroscopical): 1.25
- Intensity of the damages, quotation ([4]; macroscopical, scores 0 to 5): 1.83
- Histological examination score [5]: 2.13
- Mortality ([6]; 100 mg/kg, 4 weeks, atheromatogenous regimen (batch No. 2: 2/15)): 3/15
- Classification of the anti-atheromatous action [7]: Compound of the invention>Fenofibrate>Clofibrate
- Total Score (biochemistry, atheromatous risk, macroscopical, histological) [7]: 6.51

Structure (SMILES): CC(C)OC(=O)C(C)(C)Oc1ccc(C(=O)c2ccc(Cl)cc2)cc1 [Procetofene, reference compound]
- Dose dependence of hypolipaemiant activity ([9]; 6 hours after TRITON WR 1339): directly proportional to the doses
- Dose dependence of hypolipaemiant activity ([9]; 24 hours after TRITON WR 1339): inversely proportional to the dose
- Cholesterol HDL/LDL score vs 250 mg/kg Procetofene ([9]; 6 hours after, 250 mg/kg oral): 1.00
- Total Score vs 250 mg/kg Procetofene ([9]; 6 hours after, 250 mg/kg oral): 4.00
- Total cholesterol score vs 250 mg/kg Procetofene ([9]; 6 hours after, 250 mg/kg oral): 1.00
- Total lipids score vs 250 mg/kg Procetofene ([9]; 6 hours after, 250 mg/kg oral): 1.00
- Triglycerids score vs 250 mg/kg Procetofene ([9]; 6 hours after, 250 mg/kg oral): 1.00
- Cholesterol HDL/LDL score vs 250 mg/kg Procetofene ([9]; 6 hours after, 500 mg/kg oral): 1.53
- Total Score vs 250 mg/kg Procetofene ([9]; 6 hours after, 500 mg/kg oral): 5.12
- Total cholesterol score vs 250 mg/kg Procetofene ([9]; 6 hours after, 500 mg/kg oral): 1.65
- Total lipids score vs 250 mg/kg Procetofene ([9]; 6 hours after, 500 mg/kg oral): 0.65
- Triglycerids score vs 250 mg/kg Procetofene ([9]; 6 hours after, 500 mg/kg oral): 1.29
- Cholesterol HDL/LDL score vs 250 mg/kg Procetofene ([9]; 24 hours after, 250 mg/kg oral): 1.00
- Total Score vs 250 mg/kg Procetofene ([9]; 24 hours after, 250 mg/kg oral): 4.00
- Total cholesterol score vs 250 mg/kg Procetofene ([9]; 24 hours after, 250 mg/kg oral): 1.00
- Total lipids score vs 250 mg/kg Procetofene ([9]; 24 hours after, 250 mg/kg oral): 1.00
- Triglycerids score vs 250 mg/kg Procetofene ([9]; 24 hours after, 250 mg/kg oral): 1.00
- Cholesterol HDL/LDL score vs 250 mg/kg Procetofene ([9]; 24 hours after, 500 mg/kg oral): 0.30
- Total Score vs 250 mg/kg Procetofene ([9]; 24 hours after, 500 mg/kg oral): 3.33
- Total lipids score vs 250 mg/kg Procetofene ([9]; 24 hours after, 500 mg/kg oral): 0.85
- Triglycerids score vs 250 mg/kg Procetofene ([9]; 24 hours after, 500 mg/kg oral): 1.01
- Antihyperlipaemiant activity, compound vs Procetofene ([9]; same doses (250 and 500 mg/kg)): antihyperlipaemiant activity about equal
